Assays:
NMDA receptors = test: NMDA-mediated synaptic field potentials in hippocampal slices (DNQX, reduced Mg2+); assay type: cell-based, mouse
[1] = tested on: Schaffer collateral-CA1 synapse; test: Chemically induced slow-onset potentiation (L-LTP) in hippocampal slices; assay type: cell-based, mouse
Procedure: FIG. 13C) and FIG. 13D): Drug was added at the time indicated in both panels at a concentration of 100 µM. Each point in the time courses represents the mean fEPSP slope±SEM normalized to the average of the predrug fEPSP slope. Insets show representative fEPSP traces just before drug addition and 3 hours after.
Is this reduction due to a direct effect on downstream components of L-LTP, or is it due to a failure to fully initiate L-LTP? To begin to explore this question we examined L-LTP evoked by pharmacological activation of the […], which bypasses tetanic stimulation in area CA1. In addition to being evoked through multiple high frequency tetani to the Schaffer collaterals, L-LTP in area CA1 can be induced chemically through either application of D1/D5 dopamine receptor agonists or direct activators of adenylyl cyclase and PKA. In wild-type slices, application of agonists of D1/D5 dopamine receptors or the PKA agonist Sp-cAMPS, result in a slow-onset potentiation of synaptic transmission that is sensitive to protein and RNA-synthesis inhibitors, and mutually occlusive with L-LTP elicited by multiple high frequency trains (Huang and Kandel, 1994; Huang et al., 1994; Bolshakov et al., 1997). If overexpression of calcineurin directly affects the machinery necessary to produce the late phase, pharmacologically-induced L-LTP, that bypasses E- and I-LTP, would be impaired in CN98-mutant mice, as is the case with the late phase deficit in tPA-knockout mice (Huang et al., 1996a).
We tested the ability of both the D1/D5 receptor agonist 6-Br-APB (100 μM) and the PKA activator Sp-cAMPs (100 μM) to elicit slow-onset potentiation at the Schaffer collateral-CA1 synapse in CN98 mice.
For extracellular recordings, ACSF-filled glass electrodes (1-3 MΩ) were positioned in the stratum radiatum of area CA1. A bipolar nichrome stimulating electrode was also placed in stratum radiatum for stimulation of Schaffer collateral afferents (0.05 ms duration). […]

calcineurin = test: Phosphatase assay in hippocampal extracts; assay type: biochemical, mouse
Procedure: Phosphatase assays were performed according to Hubbard and Klee (1991). Briefly, mice were injected with 5 ml/kg of pentobarbital and decapitated. Hippocampi were dissected out, homogenized in 2 mM EDTA (pH 8), 250 mM sucrose, 0.1% Bmercaptoethanol and centrifuged. Supernatants were diluted in 40 mM Tris-HCl (pH 8), 0.1M NaCl, 0.04 mg/ml bovine serum albumin, 1 mM DTT, […] (Buffer 1) and incubated at 30° C. for 1 min in Buffer 1 containing 1 mM of the peptide [γ^32P]-RII subunit of cyclic AMP-dependent protein kinase (PKA) and either 0.1 mM calmodulin (Sigma) and 0.66 mM Ca^2+ or 0.33 mM EGTA (pH 7.5). The peptide ^97[Ala]-RII (Peninsula Labs) was labeled with 0.3 roM [γ^32P]ATP (NEN) using 4 mg catalytic subunit of PKA (Fluka). The reaction was stopped with 5% TCA in 0.1 M KH2P04 and the enzyme activity was calculated as previously described (Klee et al., 1983) and is expressed in nmol Pi release/min/mg protein. The protein concentration was determined using the bicinchroninic acid protein assay kit (Sigma). All samples were performed in triplicate.
Phosphatase assays were performed as described in Winder et al., 1997. Briefly, mice were injected with 5 ml/kg of pentobarbital and decapitated. Hippocampi were dissected out, homogenized in 2 mM EDTA (pH 8), 250 mM sucrose, 0.1 k β-mercaptoethanol. Supernatants were incubated at 30° C. for 1 min in presence of the […] [Ala97]-RII peptide and either 0.1 mM calmodulin and 0.66 mM Ca^2+ or 0.33 mM EGTA. The reaction was stopped and the enzyme activity calculated previously as described (Klee et al., 1983; 1987). The activity was expressed in nmol Pi released/min/mg protein. The protein concentration was determined using the bicinchroninic acid protein assay kit (Sigma). All samples were performed in triplicate.

[2] = tested on: Schaffer collateral-CA1 pyramidal cell synapse; assay type: cell-based, mouse; conditions: wild-type slices
[3] = tested on: Schaffer collateral-CA1 pyramidal cell synapse; test: LTP induced by two 100 Hz trains in hippocampal slices; assay type: cell-based, mouse; conditions: for LTP induced by two 100 Hz trains in mutant mice after pretreatment: Tet-CN279 mutant slices, 750 nM calyculin A for 30 minutes
Text: In an attempt to isolate, in still another way, the novel intermediate phase in which PKA acts to suppress a phosphatase cascade we varied the number of tetanic trains of stimulation. One of the characteristics that distinguishes E-LTP from L-LTP is that weak stimuli such as a single 100 Hz train elicit E-LTP but not L-LTP. In contrast, to reliably induce L-LTP, 3-4 repeated 100 Hz trains are required. We therefore sought to determine if an intermediate phase of LTP could also be distinguished from these phases based on the strength of stimulus required. We elicited LTP with two 100 Hz trains spaced by 20 seconds. This protocol elicited LTP that was more robust than that elicited by one 100 Hz train, but less maintained than that elicited by four trains (FIG. 14C). In contrast to LTP elicited by a single 100 Hz train which is not affected by inhibitors of PKA (Huang et al., 1996), LTP elicited by two trains was partially sensitive to the PKA inhibitor KT5720 (no drug: […]; 1 μM KT5720: 153±5% of baseline at 1 hr, 5 slices, 4 mice; […]; FIG. 14D). […] These two types of experiments reveal a novel intermediate phase of LTP (I-LTP) exists that requires 1) a stronger stimulus than E-LTP, and 2) the activation of PKA.
Transverse hippocampal slices were prepared as previously described (Huang and Kandel, 1994). Mice of either sex, aged 7-18 weeks were used. In all appropriate cases, the experimenter was blinded to animal genotype. Hippocampi was rapidly unilaterally dissected out on ice, and […] slices were cut on a McIlwain tissue chopper and placed in oxygenated ACSF (NaCl, 124 mM, KCl, 4.4 mM; CaCl2, 2.5 mM; MgSO4, 1.3 mM; NaH2PO4, 1 mM; glucose, 10 mM; and NaHCO3 26 mM). The slices were then transferred to an interface chamber where they were subfused with oxygenated ACSF (1-2 ml/min) and allowed to equilibrate for 60-90 min at 28° C.
For extracellular recordings, ACSF-filled glass electrodes (1-3 MΩ) were positioned in the stratum radiatum of area CA1. A bipolar nichrome stimulating electrode was also placed in stratum radiatum for stimulation of Schaffer collateral afferents (0.05 ms duration). Unless otherwise mentioned, test stimuli were applied at a frequency of 1 per minute (0.017 Hz), and at a stimulus intensity that elicits a fEPSP slope that was 35% of the maximum. Experiments in which a significant change in the fiber volley amplitude occurred, were discarded. Drugs were applied through the perfusion medium. DL-AP5, calyculin A, KT5720 and R(+)-6-Bromo-[…]-3-allyl-1-phenyl-2,3,4-tetrahydro-1H-3-benzazepine (6-Br-APB) were purchased from Research Biochemicals International, Natick, Mass. DL-AP5 was dissolved directly into ACSF prior to use. Calyculin A, KT5720 and 6-Br-APB were dissolved as 100× stocks in DMSO and diluted into ACSF just before use. Sp-cAMPS (Biolog, La Jolla, Calif.) was dissolved directly in ACSF.

[4] = tested on: Schaffer collateral LTP in CA1 of hippocampal slices; test: 10-Hz LTP in CA1 of hippocampal slices (field EPSP slope); assay type: cell-based, mouse; conditions: doxycycline 1 mg/ml drinking water 2 to 3 weeks, 1 ng/ml in perfusate
CaMKII = CaMKII enzyme activity in striatum of B21 double transgenic mice on doxycycline; assay type: in vivo, mouse
Procedure: In double transgenic mice, a high level of expression of the CaMKII-Asp mRNA was obtained (FIGS. 5B and 7A-D). To determine the effect of this expression on enzyme activity. CaMKII activity was measured in the striatum of the B21 line of mice (Table 1).
Brains were removed and the striatum was dissected and immediately homogenized in 20 mM tris-HCl (pH 7.5), 0.5 mM EGTA, 0.5 mM EDTA, 2 mM leupeptin, 0.4 mM dithiothreitol, 0.1 mM phenylmethysulfonyl flouride, 0.4 mM molybdate, and 10 mM sodium pyrophosphate. CaMKII enzyme activity was determined as described (Mayford et al., 1995). B21+Dox animals received doxycycline (1 mg/ml) plus 5% sucrose in the drinking water for 3 to 5 weeks. B21+Dox withdrawal animals received doxycycline (1 mg/ml) for 3 to 5 weeks and were then switched to normal water for 6 weeks. The number of mice is given in parentheses.

wild-type mice = test: Effect of doxycycline itself on memory of wild-type mice; assay type: in vivo, mouse
[5] = Dox withdrawal: doxycycline 1 mg/ml 3 to 5 weeks, then normal water 6 weeks
[6] = doxycycline 1 mg/ml plus 5% sucrose in drinking water 3 to 5 weeks

`NC(CCCP(=O)(O)O)C(=O)O` (racemic) [DL-A95, DL-AP5] was tested, and the “NMDA-mediated field potentials in 10 μM DNQX and reduced Mg2+ (50 μM)” value (NMDA receptors) was “completely antagonized”.

In the case of `C=CCN1CCc2c(cc(O)c(O)c2Br)[C@@H](c2ccccc2)C1` [6-Br-APB, R(+)-6-Bromo-7,0-dihydroxy-3-allyl-1-phenyl-2,3,4-tetrahydro-1H-3-benzazepine], the “fEPSP slope, % of baseline at 3 hr after drug application” value (from here on “fEPSP slope, % of baseline at 3 hr”) ([1]; CN98 mutant, 6-Br-APB 100 μM) is reported as 181±41%.

In the case of `O=C(O)CN(CCOCCOCCN(CC(=O)O)CC(=O)O)CC(=O)O` [EGTA], the “phosphatase enzyme activity in hippocampal extracts” value (“phosphatase enzyme activity” for short) (calcineurin; CN98 mutant + EGTA) is reported as 0.32±0.14 nmol Pi/min/mg, the “phosphatase activity” value (calcineurin; CN98 mutant and wild-type hippocampal extracts in the presence of EGTA) is reported as “virtually abolished” and the “phosphatase enzyme activity” value (calcineurin; CN98 wild-type + EGTA) is reported as 0.427±0.16 nmol Pi/min/mg. The “phosphatase enzyme activity” value (calcineurin; mutant (Tet-CN279+Tet-CN273) + EGTA) was 0.287±0.17 nmol Pi/min/mg and the phosphatase enzyme activity in hippocampal extracts (calcineurin; wild-type (Tet-CN279+Tet-CN273) + EGTA) was 0.432 ± 0.11 nmol Pi/min/mg.

For `CCCCCCOC(=O)[C@]1(O)C[C@@H]2O[C@@]1(C)n1c3ccccc3c3c4c(c5c6ccccc6n2c5c31)C(=O)NC4` [KT5720], the “decay of LTP induced by four 100 Hz trains, compared with anisomycin” value ([2]; KT5720 1 μM, 20 minute pretreatment, anisomycin 30 μM one hour prior to tetanus) was “much more rapid decay” and the “fEPSP slope, % of baseline at 1 hr after two 100 Hz trains” value ([3]; wild-type slices, 1 μM KT5720) was 153±5%.

For `Nc1ncnc2c1ncn2[C@@H]1O[C@@H]2COP(O)(=S)O[C@H]2[C@H]1O` (stereo partly drawn) [Sp-cAMPS], the “fEPSP slope, % of baseline at 3 hr” value ([1]; CN98 wild-type, printed as Sp-cAMPS application, 100 μM) was 204±40% and the “fEPSP slope, % of baseline at 3 hr” value ([1]; wild-type, Sp-cAMPS 100 μM) was 124±13%.

`COc1ccc(C[C@H]2NC[C@H](O)[C@H]2OC(C)=O)cc1` [anisomycin] was tested, and the “LTP induced by four trains” value ([2]; anisomycin 30 μM) was “reduced” and the “sensitivity of LTP elicited by two trains to preincubation with the drug” value ([3]; wild-type slices, anisomycin 30 μM) was “completely insensitive”.

In the case of `COC[C@@H]([C@H](O)[C@H](O)C(=O)NCC[C@H](C)c1nc(/C=C/C[C@@H]2O[C@]3(C[C@@H](O)[C@@H]2C)O[C@H]([C@H](C[C@H](O)[C@H](C)[C@H](O)[C@H](C)/C=C(C)/C(C)=C/C=C/C(C)=C\C#N)OC)[C@H](OP(=O)(O)O)C3(C)C)co1)N(C)C` [calyculin A], the “LTP induced by two 100 Hz trains in mutant mice after pretreatment” value [3] is reported as “indistinguishable from that seen in wild-type” and the “LTP induced by two 100 Hz trains in mutant mice after pretreatment” value ([3]; listed as Calyculin A) is reported as “rescues the deficit”.

For `C[C@H]1c2cccc(O)c2C(=O)C2=C(O)[C@]3(O)C(=O)C(C(N)=O)=C(O)[C@@H](N(C)C)[C@@H]3[C@@H](O)[C@@H]21` [doxycycline], the “field EPSP slope as percentage of pre-tetanus baseline after 10-Hz tetanus” value ([4]; B13 double transgenic mice) was 132±10%, the “field EPSP slope as percentage of pre-tetanus baseline after 10-Hz tetanus” value ([4]; wild-type mice) was 122±6% and the “CaMKII Activity Ca^2+-independent (%)” value (CaMKII; [5]) was 5.70 ± 0.43%. The “CaMKII Activity With Ca^2+” value (CaMKII; [5]) was 14.2 ± 0.7 pmol/min/µg, the “CaMKII Activity Without Ca^2+” value (CaMKII; [5]) was 0.80 ± 0.03(3) pmol min^−1 μg^−1 and the “CaMKII Activity Ca^2+-independent (%)” value (CaMKII; [6]) was 1.22 ± 0.03%. The “CaMKII Activity With Ca^2+” value (CaMKII; [6]) was 12.9 ± 1.5 pmol/min/µg, the “CaMKII Activity Without Ca^2+” value (CaMKII; [6]) was 0.16 ± 0.04(5) pmol min^−1 μg^−1 and the memory (wild-type mice; doxycycline treatment in the adult animal) was “did not affect memory”. The “adult spatial memory and memory for fear conditioning” value (wild-type mice; wild-type mice, doxycycline 1 mg/ml during development) was “impaired”, the “fEPSP slope, % of baseline at 1 hr after two trains” value ([3]; Tet-CN279 on doxycycline (mutant sentence), 1 mg/ml in water supply, 1 ng/ml in ACSF) was 184±18% and the “fEPSP slope, % of baseline at 1 hr after two trains” value ([3]; printed 'Tet-CN279 mutant mice on doxycycline' in the sentence on wild-type mice on or off doxycycline) was 191±18%.

— US8822216B2, “DNA regulatory element for the expression of transgenes in neurons of a subject and uses thereof” (priority 1997, dated 2014)
